Data: patent US8952150B2, “Prostaglandin transporter inhibitors and uses thereof” (Albert Einstein College of Medicine of Yeshiva University, priority 2009, dated 2015)

Biological target: rat PGT (Rattus norvegicus (Rat), UniProt Q00910)
Assay: [3H]PGE2 uptake inhibition in MDCK cells stably transfected with rat PGT (percent inhibition and IC50)
Assay type: cell-based
Conditions: for Inh (% of Ctl) 0.1 μM: 0.1 μM compound; for Inh (% of Ctl) 0.1 μM / Inh (% of Ctl) 0.5 μM / Inh (% of Ctl) 2.5 μM / Inh (% of Ctl) 5 μM / Inh (% of Ctl) 1 μM / Inh (% of Ctl) 10 μM: inhibition of [3H]PGE2 uptake; for Inh (% of Ctl) 0.5 μM: 0.5 μM compound; for Inh (% of Ctl) 2.5 μM: 2.5 μM compound; for Inh (% of Ctl) 5 μM: 5 μM compound; for Inh (% of Ctl) 1 μM: 1 μM compound; for IC50: [3H]PGE2 uptake, MDCK cells stably transfected with rat PGT; for Inh (% of Ctl) 10 μM: 10 μM compound
How it was run: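 Rat PGT-transfected MDCK cells, on day 4 after seeding, took up [3H]PGE2 in Waymouth buffer at room temperature, with compound (EtOH stock diluted in buffer) added immediately before tracer. Intracellular radioactivity counted after lysis; percent inhibition versus vehicle, IC50 by fitting y=m1−m1*(m0/(m2+m0)).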

Row | Structure (SMILES) | Inh (% of Ctl) 0.1 μM | Inh (% of Ctl) 0.5 μM | Inh (% of Ctl) 2.5 μM | Inh (% of Ctl) 5 μM | Inh (% of Ctl) 1 μM | IC50 [µM] | Inh (% of Ctl) 10 μM
1 | O=C(O)c1cccc(Nc2nc(NCCOCCOCCNC(=O)c3ccccc3)nc(Nc3ccc(C(=O)NCc4ccc(F)cc4)cc3)n2)c1 [compound 150] | 4.2 % of Ctl | 14.3 % of Ctl | – | – | 23.9 % of Ctl | – | –
2 | O=C(NCCOCCOCCNc1nc(Nc2ccc(O)cc2)nc(Nc2ccc(C(=O)NCc3cc(F)ccc3F)cc2)n1)c1ccccc1 [compound 127] | 17.0 % of Ctl | 52.3 % of Ctl | – | – | 70.2 % of Ctl | – | –
3 | O=C(NCCOCCOCCNc1nc(Nc2ccc(O)cc2)nc(Nc2ccc(C(=O)NCc3ccccc3)cc2)n1)c1ccccc1 [compound 83] | – | 4.1 % of Ctl | 10.4 % of Ctl | 42.0 % of Ctl | – | 0.609 | –
4 | O=C(NCCOCCOCCNc1nc(NCCOCCOCCNC(=O)c2ccccc2)nc(Nc2ccc(O)cc2)n1)c1ccccc1 [compound 151] | – | 0.7 % of Ctl | – | – | 8.4 % of Ctl | – | –
5 | O=C(NCCOCCOCCNc1nc(Nc2ccc(O)cc2)nc(Nc2ccc(C(=O)NCc3ccc(-c4ccccc4)cc3)cc2)n1)c1ccccc1 [compound 93] | – | 24.6 % of Ctl | 43.3 % of Ctl | 51.1 % of Ctl | – | – | –
6 | CCCCCCNc1nc(Nc2ccc(O)cc2)nc(Nc2ccc(C(=O)NCc3ccccc3)cc2)n1 [compound 120] | 11.2 % of Ctl | 29.1 % of Ctl | – | – | – | – | –
7 | O=C(NCCOCCOCCNc1nc(O)nc(Nc2ccc(O)cc2)n1)c1ccccc1 [compound 12] | – | 2.8 % of Ctl | – | 4.7 % of Ctl | – | – | –
8 | COC(=O)c1cc(Nc2nc(NCCOCCOCCNC(=O)c3ccccc3)nc(Nc3ccc(C(=O)NCc4ccc(F)cc4)cc3)n2)ccc1O [compound 144] | 3.4 % of Ctl | 5.8 % of Ctl | – | – | 10.8 % of Ctl | – | –
9 | O=C(NCCOCCOCCNc1nc(Nc2ccc(O)cc2)nc(Nc2ccc(C(=O)NCc3cccc(C(F)(F)F)c3)cc2)n1)c1ccccc1 [compound 101] | 47.4 % of Ctl | 54.0 % of Ctl | 71.0 % of Ctl | 91.4 % of Ctl | – | – | –
10 | O=C(NCCOCCOCCNc1nc(Nc2ccc(O)cc2)nc(Nc2ccc(C(=O)NCc3cc(F)cc(F)c3)cc2)n1)c1ccccc1 [compound 130] | 41.6 % of Ctl | 73.2 % of Ctl | – | – | 81.7 % of Ctl | – | –
11 | O=C(NCCOCCOCCNc1nc(Nc2ccc(O)cc2)nc(Nc2cccc(C(=O)NCc3ccccc3)c2)n1)c1ccccc1 [compound 78] | – | 15.5 % of Ctl | 24.5 % of Ctl | 83.2 % of Ctl | – | – | –
12 | O=C(NCCOCCNc1nc(Nc2ccc(O)cc2)nc(Nc2ccc(C(=O)NCc3ccc(Cl)cc3)cc2)n1)c1ccccc1 [compound 98] | – | 6.7 % of Ctl | 24.9 % of Ctl | 75.1 % of Ctl | – | – | –

More lines, now with the values ahead:

Row | Inh (% of Ctl) 0.1 μM | Inh (% of Ctl) 0.5 μM | Inh (% of Ctl) 2.5 μM | Inh (% of Ctl) 5 μM | Inh (% of Ctl) 1 μM | IC50 [µM] | Inh (% of Ctl) 10 μM | Structure (SMILES)
13 | 70.3 % of Ctl | 60.8 % of Ctl | 78.3 % of Ctl | 76.6 % of Ctl | – | – | – | O=C(NCCOCCOCCNc1nc(Nc2ccc(O)cc2)nc(Nc2ccc(C(=O)NCc3cc(Cl)cc(Cl)c3)cc2)n1)c1ccccc1 [compound 108]
14 | 42.0 % of Ctl | 64.9 % of Ctl | – | – | 75.6 % of Ctl | 0.0367 | – | COc1ccc(C(=O)NCCOCCNc2nc(Nc3ccc(O)cc3)nc(Nc3ccc(C(=O)NCc4ccccc4)cc3)n2)cc1 [compound 137]
15 | 12.7 % of Ctl | 22.0 % of Ctl | – | – | 43.5 % of Ctl | – | – | O=C(NCc1ccccc1)c1ccc(Nc2nc(NCCOCCNCc3ccccc3)nc(Nc3ccc(O)cc3)n2)cc1 [compound 141]
16 | – | 2.6 % of Ctl | – | 35.2 % of Ctl | – | – | – | O=C(NCCOCCOCCNc1nc(Nc2ccc(O)cc2)nc(Nc2ccc(CO)cc2)n1)c1ccccc1 [compound 26]
17 | 33.3 % of Ctl | 64.1 % of Ctl | – | – | 77.9 % of Ctl | 0.0239 | – | O=C(NCCOCCNc1nc(Nc2ccc(O)cc2)nc(Nc2ccc(C(=O)NCc3ccccc3)cc2)n1)c1ccc(F)cc1 [compound 136]
18 | – | – | – | 41.0 % of Ctl | 16.25 % of Ctl | – | 52.5 % of Ctl | O=C(O)c1ccc(Nc2nc(NCCOCCOCCNC(=O)c3ccccc3)nc(Nc3ccccc3)n2)cc1 [compound 58]
19 | 5.8 % of Ctl | 38.1 % of Ctl | – | – | – | – | – | COC(=O)Cc1ccc(Nc2nc(NCCOCCOCCNC(=O)c3ccccc3)nc(Nc3ccc(C(=O)NCc4ccccc4)cc3)n2)cc1 [compound 122]
20 | 52.2 % of Ctl | 59.1 % of Ctl | 81.5 % of Ctl | 93.2 % of Ctl | – | – | – | O=C(NCCOCCOCCNc1nc(Nc2ccc(O)cc2)nc(Nc2ccc(C(=O)NCCc3ccccc3)cc2)n1)c1ccccc1 [compound 111]
21 | – | 1.4 % of Ctl | – | 15.0 % of Ctl | – | – | – | O=C(NCCOCCOCCNc1nc(NCCO)nc(Nc2ccc(O)cc2)n1)c1ccccc1 [compound 10]
22 | – | – | – | – | 22.8 % of Ctl | – | 57.6 % of Ctl | O=C(NCCOCCOCCNc1nc(Nc2ccccc2)nc(Nc2ccc(O)cc2)n1)Nc1ccccc1 [compound 42]
23 | 74.2 % of Ctl | 90.7 % of Ctl | – | – | – | 0.0209 | – | O=C(NCCOCCNc1nc(Nc2ccc(O)cc2)nc(Nc2ccc(C(=O)NCc3ccccc3)cc2)n1)c1ccccc1 [compound 118]
24 | 3.8 % of Ctl | 9.1 % of Ctl | – | – | 17.6 % of Ctl | – | – | O=C(NCc1ccc(F)cc1)c1ccc(Nc2nc(Nc3ccc(O)cc3)nc(Nc3ccc(CNCc4ccccc4)cc3)n2)cc1 [compound 149]
25 | – | – | – | 12.2 % of Ctl | 7.6 % of Ctl | – | 49.6 % of Ctl | O=C(NCCCCCNc1nc(Nc2ccccc2)nc(Nc2ccc(O)cc2)n1)c1ccccc1 [compound 85]
26 | – | 17.5 % of Ctl | 32.2 % of Ctl | 49.4 % of Ctl | – | – | – | O=C(O)c1ccc(CNC(=O)c2ccc(Nc3nc(NCCOCCOCCNC(=O)c4ccccc4)nc(Nc4ccc(O)cc4)n3)cc2)cc1 [compound 112]
27 | 68.8 % of Ctl | 85.4 % of Ctl | – | – | – | 0.034 | – | CN(c1ccc(C(=O)NCc2ccccc2)cc1)c1nc(NCCOCCOCCNC(=O)c2ccccc2)nc(Nc2ccc(O)cc2)n1 [compound 124]
28 | 81.3 % of Ctl | 61.8 % of Ctl | 77.1 % of Ctl | 89.4 % of Ctl | – | 0.0237 | – | O=C(NCCOCCOCCNc1nc(Nc2ccc(O)cc2)nc(Nc2ccc(C(=O)NCc3ccc(F)cc3)cc2)n1)c1ccccc1 [compound 99]
29 | 57.2 % of Ctl | 81.4 % of Ctl | – | – | – | – | – | CCCCCCNC(=O)c1ccc(Nc2nc(NCCOCCNC(=O)c3ccccc3)nc(Nc3ccc(O)cc3)n2)cc1 [compound 119]
